Legend:
[1] = cited from earlier work
[2] = tested on: murine iNKT hybridoma cells; test: iNKT hybridoma activation, A20 B cells expressing wild-type mCD1d (IL-2 ELISA); assay type: cell-based, mouse; details: A20/mCD1d wt, FIG. 5B
Protocol: (§1) First, the present sphingamide compounds were tested to determine whether they activated iNKT cell hybridomas when the sphingamide was presented to the iNKT cell TCR by (a) an antigen presenting-cell (APC) free assay which uses recombinant mCD1d, (b) an A20 B-cell (an antigen presenting cell) expressing the wild-type (WT) mCD1d, or (c) an A20 B-cell expressing a tail-deleted mCD1d. The tail deleted mCD1d lacks the “YQDI” amino acid sorting motif required for routing CD1d to endosomes (for example, amino acid residues 314-317 of SEQ ID NO: 2 would be missing).
(§2) For in vitro stimulation, murine iNKT hybridoma cells at 5×10^4 cells/well in 96-well plates were stimulated with the 10^5 cells/well glycolipid pulsed BMDCs in cDMEM for 4, 16 or 24 hours at 37° C. with 0.05 μg/ml, 0.1 μg/ml, 0.5 μg/ml, 1 μg/ml, 2 μg/ml, or 5 μg/ml of lipid, and levels of murine IL-2 secretion were determined by ELISA.
(§3) Tail-deleted mCD1d cannot recycle back into the cell, as the binding site for a required lipid loading factor has been deleted. (see Jin et al., Immunity 2009, 30(6):888-898 for a discussion of the model).

[3] = tested on: murine iNKT hybridoma cells; test: iNKT hybridoma activation, A20 B cells expressing tail-deleted mCD1d (IL-2 ELISA); assay type: cell-based, mouse; details: tail-deleted mCD1d A20 B cell, FIG. 5C
Protocol: as §1, §2, §3

[4] = tested on: murine iNKT hybridoma cells; test: iNKT hybridoma activation, APC-free assay with recombinant mCD1d (IL-2 ELISA); assay type: cell-based, mouse; details: FIG. 5A/5D
Protocol: as §1, §2
The present sphingamide, or amide-lacking versions were tested to determine whether they activated iNKT cell hybridomas when the sphingamide was presented to the iNKT cell TCR by an antigen presenting-cell (APC) free assay which uses recombinant mCD1d. […]
For in vitro stimulation, murine iNKT hybridoma cells at 5×10^4 cells/well were added to the wells containing CD1d and incubated in the presence of 5% CO2 at 37° C. over night. Levels of murine IL-2 secretion were determined by ELISA.

[5] = tested on: iNKT cells in C57BL/6 mice; test: Sphingamide competition with OCH in vivo, serum IL-4 and IFN-γ; set-up: species or system mouse; details: FIG. 9
Protocol: Cytokine levels were measured from blood serum using ELISA after 4 hours (IL-4) and 16 hours (IFN-γ).

[6] = tested on: murine iNKT hybridoma cells; test: Sphingamide competition with OCH in vitro, APC-free recombinant mCD1d (IL-2 ELISA); assay type: cell-based, mouse; details: JG168 1-20 ug/ml mixed with 1 ug/ml OCH, FIG. 8
Protocol: For in vitro stimulation, murine iNKT hybridoma cells at 5×10^4 cells/well in 96-well plates were incubated with CD1d (loaded with OCH and the competing sphingamide) and levels of iNKT cell activation was monitored by measuring murine IL-2 secretion by ELISA.

[7] = tested on: iNKT cells in C57BL/6 mice; test: In vivo activation of iNKT cells, serum cytokines by ELISA; set-up: species or system mouse
[8] = tested on: Vα24+ human NKT cells; test: Activation of human iNKT cells in vitro, GM-CSF release (sandwich ELISA); assay type: cell-based; details: glycolipid-pulsed PBMCs with Vα24+ human NKT cells, 24 h, FIG. 7
Text: The isolation and expansion of human Vα24^+ NKT cell lines has been published previously (Rogers, P. R., Matsumoto, A., Naidenko, O., Kronenberg, M., Mikayama, T., and Kato, S. (2004) Expansion of human Vα24^+ NKT cells by repeated stimulation with KRN7000. J. Immunol. Methods 285, 197-214). Human donor peripheral blood mononuclear cells (PBMCs, 1-1.5×10^6/ml) were isolated and cultured in RPMI 1640 medium (Invitrogen) supplemented with 10% (v/v) FBS and 1% (v/v) Pen/Strep/glutamine (10,000 units of penicillin, 10 mg of streptomycin, 29.2 mg/ml L-glutamine; Invitrogen), and cultures were expanded by weekly re-stimulation with αGalCer-pulsed, irradiated PBMC and recombinant human IL-2.
PBMCs (1×10^5 per well) were pulsed with glycolipids, seeded in 96-well plates, and cultured in the presence of 5×10^4 Vα24^+ human NKT cells for 24 h. GM-CSF release was evaluated in a sandwich ELISA following the manufacturer's instructions (R&D Systems).

For `CCCCCCCCCCCCCCCCCCCCCCCC(=O)N[C@@H](CO[C@H]1OC(CO)[C@H](O)C(O)C1O)[C@H](O)[C@H](O)CCCCC` (stereo partly drawn) [OCH], the “solubility in aqueous solutions” value [1] is given as “poorly soluble”.
In the case of `CCCCCCCCCCCCCC[C@@H](O)[C@@H](O)[C@H](CO[C@H]1OC(CO)[C@H](O)C(O)C1O)NC(=O)CCCCCCC` (stereo partly drawn) [PBS-25], the “IL-2 secretion by iNKT hybridoma” value [2] is given as “significant amount of IL-2”, the “solubility in aqueous solutions” value [1] is given as “readily soluble” and the “IL-2 secretion by iNKT hybridoma” value [3] is given as “significant amount of IL-2”. For the same compound, the “IL-2 secretion by iNKT hybridoma” value [4] was “significant amount of IL-2”.
In the case of `CCCCCCCC(=O)N[C@@H](CO[C@H]1OC(CO)[C@H](O)C(O)[C@@H]1O)[C@H](O)[C@H](O)CCCC(=O)NCCCCCCc1ccccc1` (stereo partly drawn) [JG168], the “activation of iNKT cells in vivo” value ([5]; 20 μg JG168 alone i.v.) is reported as “did not activate iNKT cells in vivo”, the “competition with OCH (serum IL-4 and IFN-γ)” value ([5]; 1, 5 or 20 μg JG168 + 1 μg OCH i.v.) is reported as “no competition was observed” and the “competition with OCH (IL-2 secretion)” value [6] is reported as “No competition was observed”.
For `CCCCCCCCCCCCCCCCCCCCCCCCCC(=O)N[C@@H](CO[C@H]1O[C@H](CO)[C@H](O)[C@H](O)[C@H]1O)[C@H](O)[C@H](O)CCCCCCCCCCCCCC` [α-GalCer, N-[(2S,3S,4R)-3,4-Dihydroxy-1-[(2S,3R,4S,5R,6R)-3,4,5-trihydroxy-6-(hydroxymethyl)oxan-2-yl]oxyoctadecan-2-yl]hexacosanamide], the “IL-2 secretion by iNKT hybridoma” value [2] was “stimulated the secretion of IL-2”, the “cytokines produced in vivo (IL-4 / IFN-γ)” value ([7]; 1 μg glycolipid injected i.v., FIG. 12) was “makes both” and the “serum IL-4” value ([7]; C57BL/6 mice, 5 μg glycolipid i.v., 4 hours) was “significant amounts”. The “serum IFN-γ” value ([7]; C57BL/6 mice, 5 μg glycolipid i.v., 16 hours) was “significant amounts”, the “solubility in aqueous solutions” value [1] was “poorly soluble” and the GM-CSF secretion [8] was “significant secretion of GMCSF at all doses”. The “IL-2 secretion by iNKT hybridoma” value [3] was “did not stimulate IL-2 production”.
